Data on 13 compounds can be found in ChEMBL document CHEMBL1137465, “Cytostatic evaluations of nucleoside analogs related to unnatural base pairs for a genetic expansion system” (Bioorg Med Chem Lett, 2007).

Series [1] relates to CCRF-CEM. The series can be described thus: Cytostatic activity against human CCRFCEM cells at 500 uM by MTT assay. The format is functional.
For series [2], the system named is HT-1080. The series can be described thus: Cytostatic activity against human HT1080 cells by MTT assay. The format is functional, cell-based.
The nature of series [3]: Cytostatic activity against human WI38 cells at 500 uM by MTT assay. The series is classed as ADME, cell-based, WI-38.
The subject of series [4] is CCRF-CEM. The series can be described thus: Cytostatic activity against human CCRFCEM cells by MTT assay. The format is functional, cell-based.
A short description of series [5]: Cytostatic activity against human WI38 cells MTT assay. The series is classed as ADME, cell-based. Conditions: WI-38.
The subject of series [6] is HT-1080. The experiment in a line: Cytostatic activity against human HT1080 cells assessed as relative percent survival at 5 uM by MTT assay. Conditions: read-out: Survival. The series is classed as functional.
Series [7] deals with HT-1080. The experiment in a line: Cytostatic activity against human HT1080 cells assessed as relative percent survival at 25 uM by MTT assay. The series is classed as functional. The conditions noted are these: read-out: Survival.
A short description of series [8]: Cytostatic activity against human WI38 cells assessed as relative percent survival at 5 uM by MTT assay. The series is classed as ADME, cell-based, WI-38. The conditions noted are these: read-out: Survival.
The subject of series [9] is WI-38. The series can be described thus: Cytostatic activity against human WI38 cells assessed as relative percent survival at 25 uM by MTT assay. The series is classed as functional. The conditions noted are these: read-out: Survival.
The subject of series [10] is HT-1080. The series can be described thus: Cytostatic activity against human HT1080 cells at 500 uM by MTT assay. The format is functional.

Molecules are shown by their SMILES.

Regarding `Nc1nc(-c2ccco2)c2ncn([C@H]3C[C@H](O)[C@@H](CO)O3)c2n1`, the inhibition at 500 µM in series [1] and in series [3] was below 50% throughout. In series [2], this compound came in with a half-maximal inhibitory concentration (IC50) of 290 µM.

With `OC[C@H]1O[C@@H](n2cnc3c(-c4cccs4)ncnc32)[C@H](O)[C@@H]1O`, the IC50 was found to be 2.3 µM in series [4], 0.33 µM in series [2] and 5.7 µM in [5].

`Nc1nc(-c2cccs2)c2ncn([C@H]3C[C@H](O)[C@@H](CO)O3)c2n1`: the half-inhibitory concentration (IC50) was 340 µM in series [4], 38 µM in series [2] and 500 µM in series [5]. The viability at 5 µM in series [6] was determined as 97%; in [8], 92%. The viability at 25 µM in series [7] was determined as 69%; in [9] it was 91%.

As to `OC[C@H]1O[C@@H](n2cnc3c(-c4cccs4)ncnc32)C[C@@H]1O`, the IC50 in [4] was determined as 420 µM; in series [2] it was 95 µM. Besides, the inhibition at 500 µM in series [3] is below 50%.

For the compound `O=Cc1cccn1[C@@H]1O[C@H](CO)[C@@H](O)[C@H]1O`, the inhibition at 500 µM in series [1], in series [10] and in series [3] was below 50% each time.

In the case of `OC[C@H]1O[C@@H](n2cnc3c(-c4cccs4)ccnc32)[C@H](O)[C@@H]1O`, the IC50 is 230 µM in [4], 190 µM in [2] and 310 µM in series [5].

Take `O=c1[nH]cccc1[C@H]1C[C@H](O)[C@@H](CO)O1`: the inhibition at 500 µM in series [10] and in series [3] was below 50% each time.

Consider `O=c1[nH]c(=O)n([C@H]2C[C@H](O)[C@@H](CO)O2)cc1F` [FLOXURIDINE], for which the half-inhibitory concentration (IC50) in series [4] turned out to be 0.29 µM; in series [2], 0.18 µM; in [5], 500 µM.

With `O=Cc1cccn1[C@H]1C[C@H](O)[C@@H](CO)O1`, the inhibition at 500 µM in [1], in [10] and in series [3] was below 50% each time.

Take `OC[C@H]1O[C@@H](n2cnc3c(-c4cccs4)ccnc32)C[C@@H]1O`: the IC50 in series [4] was determined as 120 µM; in [2], 56 µM; in series [5], 190 µM.

For the compound `Nc1nc(-c2cccs2)c2ncn([C@@H]3O[C@H](CO)[C@@H](O)[C@H]3O)c2n1`, the inhibition at 500 µM in series [1] and in series [3] was below 50% in each case. Moreover, in series [2], inhibition was half-maximal at 88 µM (IC50).

`O=c1[nH]cccc1[C@@H]1O[C@H](CO)[C@@H](O)[C@H]1O`: the inhibition at 500 µM in series [10] and in series [3] was below 50% throughout.

`OC[C@H]1O[C@@H](n2cnc3c(-c4ccco4)ncnc32)C[C@@H]1O`: the inhibition at 500 µM in series [1] and in series [3] was below 50% in each case. The compound also gave an IC50 in series [2] of 330 µM.
